{
  "source": "paper PMC5399635",
  "about": "(The Journal of Pharmacology and Experimental Therapeutics, 2017)",
  "key": {"[1]": {"target": "human µ-opioid receptor (Homo sapiens, UniProt P35372)", "sequence (P35372 whole entry)": "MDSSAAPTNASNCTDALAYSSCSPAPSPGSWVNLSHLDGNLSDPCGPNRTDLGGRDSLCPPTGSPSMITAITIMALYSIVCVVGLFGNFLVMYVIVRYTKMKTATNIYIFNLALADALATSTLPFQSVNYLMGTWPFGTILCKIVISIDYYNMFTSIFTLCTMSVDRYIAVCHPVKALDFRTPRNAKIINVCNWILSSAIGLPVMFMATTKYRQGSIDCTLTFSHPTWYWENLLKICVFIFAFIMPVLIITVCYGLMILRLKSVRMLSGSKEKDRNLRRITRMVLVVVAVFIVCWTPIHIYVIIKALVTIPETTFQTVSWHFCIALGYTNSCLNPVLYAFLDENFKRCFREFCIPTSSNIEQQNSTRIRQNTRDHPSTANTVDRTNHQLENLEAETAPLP", "assay": "[35S]GTPγS binding, Schild-type antagonism of morphine (CHO-K1 membranes)", "conditions": "versus morphine; pooled 3 experiments"}, "[2]": {"test_system": "morphine-induced antinociception", "assay": "Hot plate model of nociception, antagonism of morphine", "conditions": "Rattus norvegicus, po, read-out: ED50, antagonism of morphine analgesia"}, "[3]": {"test_system": "panel of more than 300 receptors, ion channels, transporters, and enzymes", "assay": "Binding screen across a panel of more than 300 targets", "conditions": "10 µM; apart from opioid receptors; data not shown"}},
  "data": [
    {"smiles": "C=CCN1CC[C@]23c4c5ccc(O)c4O[C@H]2[C@@H](OCCOCCOCCOCCOCCOCCOCCOC)CC[C@@]3(O)[C@H]1C5", "note": "[Naloxegol, naloxegol]", "values": [
      {"measurement": "Schild slope", "setting": "[1]", "value": "–1.03"},
      {"measurement": "ED50", "setting": "[2]", "value": 55.4, "unit": "mg/kg"},
      {"measurement": "inhibition of binding across panel", "setting": "[3]", "value": "≤ 30", "unit": "%"}
    ]}
  ]
}
